{"source": "patent US20110275667A1", "about": "“COMPOSITIONS USEFUL FOR TREATING GASTROESOPHAGEAL REFLUX DISEASE” (EDUSA Pharmaceuticals, Inc., priority 2007, published 2011)", "key": {"healthy volunteers [1]": {"system": "healthy volunteers", "assay": "Phase 1b crossover clinical trial: reflux events measured by multichannel intraluminal impedance and pH (MII-pH) after a refluxogenic meal", "assay_type": "in vivo, human", "method": "The clinical trial reported here was a Phase 1b, randomized, double-blind placebo-controlled, crossover study. In the Study, 28 healthy volunteers were administered doses of DDP733 (0.5, 0.8 and 1.4 mg) and placebo and then given a refluxogenic meal. For a period of two hours after completion of the refluxogenic meal, reflux events were measured using intraesophageal impedance.\nPhase 1b, randomized, double-blinded, placebo controlled, crossover study.\nThree Study Periods: Total Number of Visits=4 • (1) Ten-day screening period (2 visits); • (2) Two week treatment period (Days 1-14) (2 visits: Day 1 which is on the same day as the second screening visit, and Day 8); and • (3) One day end of study period (1 visit).\nSubjects were randomized into a treatment group on Day 1 (the same day as visit 2 of the screening period). For the completed study, each subject was exposed to one of the dose levels of DDP733 (i.e., 0.5 mg, 0.8 mg and 1.4 mg) and to placebo in randomized sequence to complete approximately one week of dosing with each of the two dosing regimens (DDP733 and placebo). The six treatment sequences were:\nFor example, there were 7 subjects in the study who received the 0.5 mg dose of DDP733. At the commencement of dosing period 1, three subjects in the 0.5 mg group received placebo and 4 subjects received 0.5 mg of drug. […]\n(§1) After randomization, subjects received a first dose of study medication (Day 1). The medication was administered under supervision and the subjects were then evaluated by manometry to assess LES position and pressure and by a multichannel intraluminal impedance and pH (MII-pH) procedures to measure the number of reflux events following ingestion of a refluxogenic meal (sausage and egg breakfast sandwich and 8 oz. cup of coffee). […]\n• Primary: Reduction in esophageal reflux during a provocative procedure (following a refluxogenic meal) as measured by MII-pH; • Secondary: • (a) Change in reflux related symptoms (heartburn, regurgitation, acid taste) associated with ingestion of a refluxogenic meal; and • (b) Change in lower esophageal sphincter pressure. […]"}, "healthy volunteers [2]": {"system": "healthy volunteers", "assay": "Phase 1b clinical trial: lower esophageal sphincter pressure (LESP) by manometry", "assay_type": "in vivo, human", "conditions": "0.5 mg, 0.8 mg and 1.4 mg", "method": "as §1, with “coffee). The supervised dose was the only dose administered on this initial day of testing (Day 1). Subjects continued dosing for a further five day, then had one day with no study medication before returning for the next visit on Day 8. The same procedure was performed on Day 8 of the treatment period (i.e., the first day of the second dosing period).” for “coffee).”\n(§2) • Primary: Reduction in esophageal reflux during a provocative procedure (following a refluxogenic meal) as measured by MII-pH; • Secondary: • (a) Change in reflux related symptoms (heartburn, regurgitation, acid taste) associated with ingestion of a refluxogenic meal; and • (b) Change in lower esophageal sphincter pressure."}, "healthy volunteers [3]": {"system": "healthy volunteers", "assay": "Phase 1b clinical trial: reflux related symptoms (heartburn, regurgitation, acid taste) associated with refluxogenic meal", "assay_type": "in vivo, human", "conditions": "0.5 mg, 0.8 mg and 1.4 mg", "method": "In addition to assessment of the LESP and number of reflux events, subjects were also assessed on Days 1 and 8 to determine the frequency of the following symptoms: heartburn; regurgitation; and acid taste associated with the refluxogenic meal.\nas §2"}, "healthy volunteers [4]": {"system": "healthy volunteers", "assay": "Phase 1b clinical trial: safety and tolerability (vital signs, adverse events, clinical laboratory testing, ECGs)", "assay_type": "in vivo, human", "from_the_text": "Characterize the safety and tolerability of DDP733 in volunteers.\nSafety measurements included monitoring of vital signs and adverse events, clinical laboratory testing and performance of electrocardiograms (ECGs)."}, "Humans": {"system": "Humans", "conditions": "cited from earlier work"}, "gastric acid": {"system": "gastric acid", "conditions": "cited from earlier work"}}, "note": "Where two headings read alike, the source gives them in different places."}
{"smiles": "O=C(N[C@H]1CN2CCC1CC2)c1c[nH]c2ccsc2c1=O", "note": "[DDP733, (R)—N-1-azabicyclo[2.2.2]oct-3-yl-4,7-dihydro-7-oxothieno[3,2-b]pyridine-6-carboxamide]", "values": [{"measurement": "statistical significance on primary clinical endpoint of reduction in the number of reflux events versus placebo", "setting": "healthy volunteers [1]; 0.5 mg dose, p=0.0313, Wilcoxon signed-rank test", "result": "achieved statistical significance"}, {"measurement": "reduction in the number of reflux events versus placebo", "setting": "healthy volunteers [1]; 0.8 mg dose", "result": "did not show a statistically significant reduction"}, {"measurement": "reduction in the number of reflux events versus placebo", "setting": "healthy volunteers [1]; 1.4 mg dose", "result": "did not show a statistically significant reduction"}, {"measurement": "LESP versus placebo (secondary endpoint)", "setting": "healthy volunteers [2]", "result": "no statistically significant differences"}, {"measurement": "reflux related symptoms versus placebo (secondary endpoint)", "setting": "healthy volunteers [3]", "result": "no statistically significant differences"}, {"measurement": "adverse events (AEs) leading to discontinuation", "setting": "healthy volunteers [4]; all doses", "result": "no adverse events (AEs) leading to discontinuation"}, {"measurement": "significant adverse events (SAEs)", "setting": "healthy volunteers [4]; all doses", "result": "no significant adverse events (SAEs) reports"}, {"measurement": "safety and tolerability", "setting": "healthy volunteers [4]; all doses (0.5, 0.8, 1.4 mg)", "result": "safe and well tolerated"}, {"measurement": "time to resolution of drug related adverse events", "setting": "healthy volunteers [4]; did not require medication", "result": "1 to 5", "unit": "days"}, {"measurement": "liver or cardiac abnormalities", "setting": "healthy volunteers [4]; human, in vivo", "result": "No liver or cardiac abnormalities were observed"}, {"measurement": "severity of drug related adverse events (nausea, vomiting, pruritus, rash, rash macular, flush/hot flush, abdominal pain/discomfort)", "setting": "healthy volunteers [4]; human, in vivo", "result": "mild/moderate"}, {"measurement": "effect on increasing gastric emptying", "setting": "Humans; 0.2 mg dose", "result": "no significant effect"}, {"measurement": "effect on the fundus", "setting": "Humans; 0.2 mg dose", "result": "no significant effect"}, {"measurement": "effect on increasing gastric emptying", "setting": "Humans; 1.0 mg dose", "result": "no significant effect"}, {"measurement": "effect on the fundus", "setting": "Humans; 1.0 mg dose", "result": "no significant effect"}, {"measurement": "effect on gastric emptying", "setting": "Humans; 4.0 mg dose", "result": "delays gastric emptying"}, {"measurement": "effect on the fundus", "setting": "Humans; 4.0 mg dose", "result": "relaxes the fundus"}, {"measurement": "gastric acid suppressing activity", "setting": "gastric acid", "result": "has gastric acid suppressing activity"}]}
